{
  "source": "patent US20060089391A1",
  "about": "“Treatment of cancer in pediatric patients” (priority 2004, published 2006)",
  "key": {"neuroblastoma": {"tested_on": "neuroblastoma", "experiment": "Clinical response in pediatric patients with neuroblastoma", "format": "in vivo, human", "source_text": "Patients (n=19) with neuroblastoma have experienced time-to-disease progresson with a median progression free survival (FPS) of 20 weeks."}, "[1]": {"experiment": "Pharmacokinetic profiles of pediatric patients after oral dosing", "format": "in vivo, human", "details": "for area under the plasma concentration time curve / time of maximum plasma concentration: immediate release composition"}, "[2]": {"molecular_target": "biotinylated bovine brain tubulin", "details": "competition of [3H]colchicine"}, "[3]": {"details": "one 75 mg per mm^2 per day oral dose for 21 days"}, "[4]": {"details": "one 100 mg per mm^2 per day oral dose for 21 days"}, "[5]": {"details": "one 130 mg per mm^2 per day oral dose for 21 days"}, "[6]": {"details": "one 165 mg per mm^2 per day oral dose for 21 days"}, "[7]": {"details": "one 200 mg per mm^2 per day oral dose for 21 days"}, "[8]": {"details": "one 250 mg per mm^2 per day oral dose for 21 days"}},
  "note": "Where two headings read alike, the source gives them in different places.",
  "data": [
    {"compound": "COc1ccc(S(=O)(=O)Nc2cccnc2Nc2ccc(O)cc2)cc1", "note": "[ABT-751, N-(2-((4-hydroxyphenyl)amino)pyrid-3-yl)-4-methoxybenzenesulfonamide]", "values": [
      {"measurement": "clinical outcome of a single patient", "setting": "neuroblastoma; patient with neuroblastoma, 100 mg/mm^2/d on the daily x7 schedule", "result": "disease stabilization after 44 cycles"},
      {"measurement": "median progression free survival (FPS)", "setting": "neuroblastoma; patients (n=19) with neuroblastoma", "result": 20, "unit": "weeks"},
      {"measurement": "Tmax", "setting": "[1]; 250 mg/mm^2/d QD oral", "result": 2.0, "unit": "h"},
      {"measurement": "Tmax", "setting": "[1]; human, in vivo, 200 QD oral, mean±SD, read-out: Tmax", "result": "3 ± 1.7", "unit": "h"},
      {"measurement": "Cmax", "setting": "[1]; human, plasma, 75 QD oral, mean±SD", "result": "8000 ± 1700", "unit": "ng/mL"},
      {"measurement": "Tmax", "setting": "[1]; human, plasma, 75 QD oral, mean±SD, read-out: Tmax", "result": "2.7 ± 0.6", "unit": "h"},
      {"measurement": "Cmax", "setting": "[1]; human, plasma, 100 QD oral, mean±SD", "result": "10600 ± 3000", "unit": "ng/mL"},
      {"measurement": "Tmax", "setting": "[1]; human, plasma, 100 QD oral, mean±SD, read-out: Tmax", "result": "1.9 ± 1", "unit": "h"},
      {"measurement": "Cmax", "setting": "[1]; human, plasma, 130 QD oral, mean±SD", "result": "10800 ± 2900", "unit": "ng/mL"},
      {"measurement": "Tmax", "setting": "[1]; human, plasma, 130 QD oral, mean±SD, read-out: Tmax", "result": "2.2 ± 0.8", "unit": "h"},
      {"measurement": "Cmax", "setting": "[1]; human, plasma, 165 QD oral, mean±SD", "result": "13500 ± 4600", "unit": "ng/mL"},
      {"measurement": "Tmax", "setting": "[1]; human, plasma, 165 QD oral, mean±SD, read-out: Tmax", "result": "3 ± 1.7", "unit": "h"},
      {"measurement": "Cmax", "setting": "[1]; human, plasma, 200 QD oral, mean±SD", "result": "16900 ± 8100", "unit": "ng/mL"},
      {"measurement": "Cmax", "setting": "[1]; human, plasma, 250 QD oral, mean±SD", "result": "23300 ± 6500", "unit": "ng/mL"},
      {"measurement": "area under the plasma concentration time curve", "setting": "[1]; [3]", "result": "52000 ± 21000", "unit": "ng·h/mL"},
      {"measurement": "time of maximum plasma concentration", "setting": "[1]; [3]", "result": "2.7 ± 0.6", "unit": "h"},
      {"measurement": "area under the plasma concentration time curve", "setting": "[1]; [4]", "result": "60000 ± 19000", "unit": "ng·h/mL"},
      {"measurement": "time of maximum plasma concentration", "setting": "[1]; [4]", "result": "1.9 ± 1", "unit": "h"},
      {"measurement": "area under the plasma concentration time curve", "setting": "[1]; [5]", "result": "62000 ± 19000", "unit": "ng·h/mL"},
      {"measurement": "time of maximum plasma concentration", "setting": "[1]; [5]", "result": "2.2 ± 0.8", "unit": "h"},
      {"measurement": "area under the plasma concentration time curve", "setting": "[1]; [6]", "result": "90000 ± 27000", "unit": "ng·h/mL"},
      {"measurement": "time of maximum plasma concentration", "setting": "[1]; [6]", "result": "3 ± 1.7", "unit": "h"},
      {"measurement": "area under the plasma concentration time curve", "setting": "[1]; [7]", "result": "91000 ± 24000", "unit": "ng·h/mL"},
      {"measurement": "time of maximum plasma concentration", "setting": "[1]; [7]", "result": "3 ± 1.7", "unit": "h"},
      {"measurement": "area under the plasma concentration time curve", "setting": "[1]; [8]", "result": "129000 ± 23000", "unit": "ng·h/mL"},
      {"measurement": "time of maximum plasma concentration", "setting": "[1]; [8]", "result": 2, "unit": "h"},
      {"measurement": "Ki", "setting": "[2]", "result": 2600, "unit": "nM"}
    ]},
    {"compound": "CC[C@]1(O)C[C@@H]2CN(CCc3c([nH]c4ccccc34)[C@@](C(=O)OC)(c3cc4c(cc3OC)N(C)[C@H]3[C@@](O)(C(=O)OC)[C@H](OC(C)=O)[C@]5(CC)C=CCN6CC[C@]43[C@@H]65)C2)C1", "note": "[vinblastine]", "values": [
      {"measurement": "Ki", "setting": "[2]", "result": "> 100000", "unit": "nM"}
    ]}
  ]
}
